According to ChEMBL document CHEMBL4507291 (2021):

How the values were obtained:
[1] = target: Alpha-1B adrenergic receptor (Homo sapiens) (UniProt P35368); conditions: Compound concentration 10.0 uM
[2] = target: 5-hydroxytryptamine receptor 1B (Homo sapiens) (UniProt P28222); assay: Inhibition of Serotonin (5-Hydroxytryptamine) 5-HT1B at 10 µM in the Eurofins-Panlabs radioligand binding assay (Eurofins_assay_271200); conditions: Compound concentration 10.0 uM
[3] = target: Calcium/calmodulin-dependent protein kinase kinase 2 (Homo sapiens) (UniProt Q96RR4); assay: CAMKK2 (CaMKK beta) Kinase screen; conditions: Compound concentration 1.0 uM
[4] = target: T1, Serine/threonine-protein kinase 4 (Homo sapiens) (UniProt Q13043); assay: STK4 (MST1) Kinase screen; conditions: Compound concentration 1.0 uM
T1 sequence (whole entry): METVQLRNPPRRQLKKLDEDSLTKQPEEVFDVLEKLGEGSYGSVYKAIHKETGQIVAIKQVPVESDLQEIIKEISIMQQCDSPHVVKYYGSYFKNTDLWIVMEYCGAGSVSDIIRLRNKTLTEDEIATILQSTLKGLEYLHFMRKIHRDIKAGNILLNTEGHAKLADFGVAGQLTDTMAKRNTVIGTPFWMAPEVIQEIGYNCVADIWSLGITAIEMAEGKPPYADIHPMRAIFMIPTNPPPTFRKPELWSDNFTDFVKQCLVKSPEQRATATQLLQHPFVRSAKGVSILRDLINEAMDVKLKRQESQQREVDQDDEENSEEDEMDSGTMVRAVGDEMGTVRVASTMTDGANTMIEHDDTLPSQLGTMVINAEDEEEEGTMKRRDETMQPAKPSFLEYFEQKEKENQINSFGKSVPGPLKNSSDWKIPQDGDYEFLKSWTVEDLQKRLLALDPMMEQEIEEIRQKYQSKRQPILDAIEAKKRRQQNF

[5] = target: Serine/threonine-protein kinase PAK 6 (Homo sapiens) (UniProt Q9NQU5); assay: PAK6 Kinase screen; conditions: Compound concentration 1.0 uM
[6] = target: Glutamate receptor ionotropic, kainate (Rattus norvegicus) (UniProt P22756+Q01812+P42260+P42264+Q63273); assay: Inhibition of Glutamate, Kainate at 10 µM in the Eurofins-Panlabs radioligand binding assay (Eurofins_assay_232700); conditions: Compound concentration 10.0 uM
[7] = target: Tyrosine-protein kinase Fyn (Homo sapiens) (UniProt P06241); assay: FYN Kinase screen; conditions: Compound concentration 1.0 uM
[8] = target: Cathepsin G (Homo sapiens) (UniProt P08311); assay: Inhibition of Peptidase, CTSG (Cathepsin G) at 10 µM in the Eurofins-Panlabs enzyme assay (Eurofins_assay_112510); set-up: substrate with concentration; conditions: Compound concentration 10.0 uM
[9] = target: Cyclin-dependent kinase 1/cyclin B (Homo sapiens) (UniProt P06493+P14635+Q8WWL7+O95067); assay: CDK1/cyclin B Kinase screen; format: protein-complex assay; conditions: Compound concentration 1.0 uM
[10] = target: Tyrosine-protein kinase Yes (Homo sapiens) (UniProt P07947); assay: YES1 Kinase screen; conditions: Compound concentration 1.0 uM
[11] = target: Tyrosine-protein kinase ABL2 (Homo sapiens) (UniProt P42684); assay: ABL2 (Arg) Kinase screen; conditions: Compound concentration 1.0 uM
[12] = species: Homo sapiens; assay: Glutamate, Metabotropic, mGlu5 Eurofins-Panlabs radioligand binding assay; conditions: Compound concentration 10.0 uM
[13] = target: Mitogen-activated protein kinase kinase kinase kinase 5 (Homo sapiens) (UniProt Q9Y4K4); assay: MAP4K5 (KHS1) Kinase screen; conditions: Compound concentration 1.0 uM
[14] = target: cAMP-dependent protein kinase catalytic subunit alpha (Homo sapiens) (UniProt P17612); assay: PRKACA (PKA) Kinase screen; conditions: Compound concentration 1.0 uM
[15] = target: Corticotropin-releasing factor receptor 1 (Homo sapiens) (UniProt P34998); assay: Corticotropin Releasing Factor CRF1 Eurofins-Panlabs radioligand binding assay; conditions: Compound concentration 10.0 uM
[16] = target: T2, Dual specificity protein kinase TTK (Homo sapiens) (UniProt P33981); assay: TTK Kinase screen; conditions: Compound concentration 1.0 uM
T2 sequence (whole entry): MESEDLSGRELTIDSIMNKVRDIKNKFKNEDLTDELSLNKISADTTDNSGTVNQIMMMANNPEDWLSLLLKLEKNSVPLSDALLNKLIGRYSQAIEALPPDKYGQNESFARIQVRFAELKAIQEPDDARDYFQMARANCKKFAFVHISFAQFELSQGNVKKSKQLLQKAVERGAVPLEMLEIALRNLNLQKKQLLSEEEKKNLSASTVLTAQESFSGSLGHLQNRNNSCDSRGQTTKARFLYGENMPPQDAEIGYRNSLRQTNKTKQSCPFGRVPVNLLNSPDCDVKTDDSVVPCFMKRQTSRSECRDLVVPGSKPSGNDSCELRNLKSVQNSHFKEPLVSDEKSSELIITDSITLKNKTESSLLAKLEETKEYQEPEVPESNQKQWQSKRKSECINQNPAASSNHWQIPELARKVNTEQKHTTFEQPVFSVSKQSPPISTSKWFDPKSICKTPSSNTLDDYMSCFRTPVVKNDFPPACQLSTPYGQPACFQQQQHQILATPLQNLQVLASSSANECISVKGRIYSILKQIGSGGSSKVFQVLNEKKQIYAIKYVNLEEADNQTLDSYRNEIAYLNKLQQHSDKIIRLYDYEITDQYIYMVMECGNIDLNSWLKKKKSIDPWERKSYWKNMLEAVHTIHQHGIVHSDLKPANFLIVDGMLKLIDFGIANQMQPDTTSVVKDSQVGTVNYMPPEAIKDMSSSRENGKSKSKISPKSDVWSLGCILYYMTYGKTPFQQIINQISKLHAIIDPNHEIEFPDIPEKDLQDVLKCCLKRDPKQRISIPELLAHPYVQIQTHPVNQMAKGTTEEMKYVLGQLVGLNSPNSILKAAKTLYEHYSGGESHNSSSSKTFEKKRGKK

Measured: inhibition

Serine/threonine-protein kinase PAK 6 (Homo sapiens), sequence (Q9NQU5 whole entry, looked up): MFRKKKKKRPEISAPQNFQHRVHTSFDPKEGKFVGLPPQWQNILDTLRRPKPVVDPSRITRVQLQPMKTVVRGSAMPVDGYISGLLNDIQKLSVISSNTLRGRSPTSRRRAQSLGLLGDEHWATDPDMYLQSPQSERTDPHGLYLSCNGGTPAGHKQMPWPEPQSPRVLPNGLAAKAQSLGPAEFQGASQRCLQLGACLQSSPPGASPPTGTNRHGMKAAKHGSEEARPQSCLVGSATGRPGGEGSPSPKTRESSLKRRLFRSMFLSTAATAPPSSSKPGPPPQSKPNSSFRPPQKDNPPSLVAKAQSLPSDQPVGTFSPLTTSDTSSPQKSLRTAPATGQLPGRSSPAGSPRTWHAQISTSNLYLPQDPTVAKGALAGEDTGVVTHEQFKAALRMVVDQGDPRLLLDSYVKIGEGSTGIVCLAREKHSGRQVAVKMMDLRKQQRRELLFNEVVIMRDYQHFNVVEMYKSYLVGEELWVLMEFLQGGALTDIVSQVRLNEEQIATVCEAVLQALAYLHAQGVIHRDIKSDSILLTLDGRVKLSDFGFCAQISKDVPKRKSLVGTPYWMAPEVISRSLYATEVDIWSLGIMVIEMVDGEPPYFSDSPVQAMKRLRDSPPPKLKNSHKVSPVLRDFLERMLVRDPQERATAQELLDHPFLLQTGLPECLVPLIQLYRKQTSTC
Calcium/calmodulin-dependent protein kinase kinase 2 (Homo sapiens), sequence (Q96RR4 2-588 limits assumed): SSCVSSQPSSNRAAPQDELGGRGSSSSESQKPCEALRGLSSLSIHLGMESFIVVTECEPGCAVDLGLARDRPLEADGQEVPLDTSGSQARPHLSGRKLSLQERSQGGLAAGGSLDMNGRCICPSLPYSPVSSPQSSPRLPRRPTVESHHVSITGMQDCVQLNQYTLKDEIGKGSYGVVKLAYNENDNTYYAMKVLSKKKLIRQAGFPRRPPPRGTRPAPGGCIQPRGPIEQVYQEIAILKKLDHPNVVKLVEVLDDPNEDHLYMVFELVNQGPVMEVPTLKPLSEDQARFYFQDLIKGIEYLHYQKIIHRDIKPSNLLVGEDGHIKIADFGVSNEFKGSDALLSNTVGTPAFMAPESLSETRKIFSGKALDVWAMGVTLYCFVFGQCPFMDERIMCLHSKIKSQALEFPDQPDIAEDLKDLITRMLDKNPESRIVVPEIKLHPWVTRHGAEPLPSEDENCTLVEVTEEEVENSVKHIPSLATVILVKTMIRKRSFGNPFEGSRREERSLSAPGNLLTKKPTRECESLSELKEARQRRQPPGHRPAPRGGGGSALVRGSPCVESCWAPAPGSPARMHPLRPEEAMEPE
5-hydroxytryptamine receptor 1B (Homo sapiens), sequence (P28222 whole entry): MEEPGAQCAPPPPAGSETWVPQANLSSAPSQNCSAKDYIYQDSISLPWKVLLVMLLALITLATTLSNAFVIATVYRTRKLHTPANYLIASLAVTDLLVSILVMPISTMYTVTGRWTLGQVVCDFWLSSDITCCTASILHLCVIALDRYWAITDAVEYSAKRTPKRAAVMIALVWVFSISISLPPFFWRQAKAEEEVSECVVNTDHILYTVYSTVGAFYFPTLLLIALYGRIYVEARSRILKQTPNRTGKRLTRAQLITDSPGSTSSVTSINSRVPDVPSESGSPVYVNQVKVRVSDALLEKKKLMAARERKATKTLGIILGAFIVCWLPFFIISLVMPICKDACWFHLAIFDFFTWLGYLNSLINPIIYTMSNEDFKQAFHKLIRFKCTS
Tyrosine-protein kinase Yes (Homo sapiens), sequence (P07947 2-543 limits assumed): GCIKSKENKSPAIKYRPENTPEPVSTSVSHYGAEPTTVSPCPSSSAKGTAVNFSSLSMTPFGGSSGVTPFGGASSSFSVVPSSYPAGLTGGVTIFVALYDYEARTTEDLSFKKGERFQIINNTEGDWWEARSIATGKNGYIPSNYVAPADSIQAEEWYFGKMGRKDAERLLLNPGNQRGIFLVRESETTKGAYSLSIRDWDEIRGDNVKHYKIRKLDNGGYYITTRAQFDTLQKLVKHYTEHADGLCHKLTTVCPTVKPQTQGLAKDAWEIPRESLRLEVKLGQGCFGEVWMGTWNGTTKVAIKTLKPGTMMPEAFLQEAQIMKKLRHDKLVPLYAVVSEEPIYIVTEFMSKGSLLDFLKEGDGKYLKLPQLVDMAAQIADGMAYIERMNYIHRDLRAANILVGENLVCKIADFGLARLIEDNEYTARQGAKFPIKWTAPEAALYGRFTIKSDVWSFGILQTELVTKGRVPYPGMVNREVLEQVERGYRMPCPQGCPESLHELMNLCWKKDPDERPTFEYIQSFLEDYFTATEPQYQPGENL
Cathepsin G (Homo sapiens), sequence (P08311 whole entry): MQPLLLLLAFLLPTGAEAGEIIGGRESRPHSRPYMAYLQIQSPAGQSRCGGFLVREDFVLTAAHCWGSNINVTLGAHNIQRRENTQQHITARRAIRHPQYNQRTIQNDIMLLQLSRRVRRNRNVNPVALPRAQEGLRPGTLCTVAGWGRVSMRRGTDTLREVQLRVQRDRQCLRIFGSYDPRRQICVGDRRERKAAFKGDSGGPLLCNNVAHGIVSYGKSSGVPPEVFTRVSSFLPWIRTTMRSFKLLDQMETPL
Tyrosine-protein kinase Fyn (Homo sapiens), sequence (P06241 2-537 limits assumed): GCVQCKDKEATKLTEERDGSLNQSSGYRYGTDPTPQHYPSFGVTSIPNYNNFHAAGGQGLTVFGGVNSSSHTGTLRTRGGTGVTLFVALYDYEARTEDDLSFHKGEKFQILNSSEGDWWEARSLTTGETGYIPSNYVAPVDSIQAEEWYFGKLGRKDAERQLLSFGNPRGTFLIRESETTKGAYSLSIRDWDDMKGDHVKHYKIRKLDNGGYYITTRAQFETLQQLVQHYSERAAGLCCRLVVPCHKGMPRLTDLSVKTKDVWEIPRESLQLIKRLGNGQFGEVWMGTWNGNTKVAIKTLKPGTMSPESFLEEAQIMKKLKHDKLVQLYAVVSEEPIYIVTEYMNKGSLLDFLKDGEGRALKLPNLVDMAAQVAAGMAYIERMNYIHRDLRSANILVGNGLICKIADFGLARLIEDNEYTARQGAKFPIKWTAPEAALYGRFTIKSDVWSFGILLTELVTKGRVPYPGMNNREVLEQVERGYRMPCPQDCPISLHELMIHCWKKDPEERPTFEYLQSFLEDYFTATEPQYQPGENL
Tyrosine-protein kinase ABL2 (Homo sapiens), sequence (P42684 whole entry): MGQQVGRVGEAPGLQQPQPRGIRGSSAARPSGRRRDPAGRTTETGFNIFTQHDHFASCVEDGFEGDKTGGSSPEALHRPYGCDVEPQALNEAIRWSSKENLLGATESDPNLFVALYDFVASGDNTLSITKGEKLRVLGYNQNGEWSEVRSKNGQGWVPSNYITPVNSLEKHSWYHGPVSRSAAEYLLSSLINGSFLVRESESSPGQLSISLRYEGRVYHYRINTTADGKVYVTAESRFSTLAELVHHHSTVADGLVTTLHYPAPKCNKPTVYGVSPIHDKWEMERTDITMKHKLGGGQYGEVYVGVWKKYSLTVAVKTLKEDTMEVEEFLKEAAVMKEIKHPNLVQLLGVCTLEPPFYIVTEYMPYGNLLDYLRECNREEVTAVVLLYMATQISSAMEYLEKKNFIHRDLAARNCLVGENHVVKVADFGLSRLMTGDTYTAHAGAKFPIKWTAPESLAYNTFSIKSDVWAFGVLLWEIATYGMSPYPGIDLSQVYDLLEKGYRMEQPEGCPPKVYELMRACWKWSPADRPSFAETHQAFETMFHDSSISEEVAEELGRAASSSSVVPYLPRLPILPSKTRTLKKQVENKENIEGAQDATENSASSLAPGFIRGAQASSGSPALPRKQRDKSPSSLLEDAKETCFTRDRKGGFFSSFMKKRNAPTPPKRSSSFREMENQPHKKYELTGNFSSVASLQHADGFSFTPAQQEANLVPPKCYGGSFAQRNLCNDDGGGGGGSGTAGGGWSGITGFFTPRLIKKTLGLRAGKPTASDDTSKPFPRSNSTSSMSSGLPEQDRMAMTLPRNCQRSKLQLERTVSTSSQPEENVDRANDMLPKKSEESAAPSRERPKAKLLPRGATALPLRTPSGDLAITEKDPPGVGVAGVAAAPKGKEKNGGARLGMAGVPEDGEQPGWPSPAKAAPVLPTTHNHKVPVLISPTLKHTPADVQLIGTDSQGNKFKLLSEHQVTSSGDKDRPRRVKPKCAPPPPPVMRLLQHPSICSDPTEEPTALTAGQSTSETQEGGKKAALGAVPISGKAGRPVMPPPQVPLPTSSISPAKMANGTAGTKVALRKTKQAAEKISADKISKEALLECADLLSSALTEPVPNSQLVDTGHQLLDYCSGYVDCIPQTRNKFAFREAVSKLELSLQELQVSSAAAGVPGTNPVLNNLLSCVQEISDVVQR
Alpha-1B adrenergic receptor (Homo sapiens), sequence (P35368 whole entry): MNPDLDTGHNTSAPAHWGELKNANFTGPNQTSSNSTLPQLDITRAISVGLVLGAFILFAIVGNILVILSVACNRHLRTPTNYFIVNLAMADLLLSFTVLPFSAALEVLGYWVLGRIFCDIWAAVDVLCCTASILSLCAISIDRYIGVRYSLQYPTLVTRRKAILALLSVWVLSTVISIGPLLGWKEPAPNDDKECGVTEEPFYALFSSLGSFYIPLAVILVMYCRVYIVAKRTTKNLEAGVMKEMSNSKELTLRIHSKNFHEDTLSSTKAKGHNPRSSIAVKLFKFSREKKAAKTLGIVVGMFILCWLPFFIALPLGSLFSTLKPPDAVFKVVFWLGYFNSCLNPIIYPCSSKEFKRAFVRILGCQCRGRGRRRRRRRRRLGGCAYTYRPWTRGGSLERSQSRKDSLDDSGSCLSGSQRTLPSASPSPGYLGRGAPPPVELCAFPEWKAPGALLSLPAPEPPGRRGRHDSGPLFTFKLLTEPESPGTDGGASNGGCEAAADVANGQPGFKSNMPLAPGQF

C[C@@H]1CN(c2cc(-c3nn(C)c4ccc(OC5(C)CC5)cc34)ncn2)C[C@H](C)O1 [MLi-2-NC]
inactive: [1] 3.72%

C[C@@H]1CN(c2cc(-c3n[nH]c4ccc(OC5(C)CC5)cc34)ncn2)C[C@H](C)O1 [MLi-2]
inactive: [2] 0% | [3] 19.8% | [4] 21.8% | [5] 1.67% | [6] 12% | [7] 11.2% | [8] 9% | [9] 1.29% | [10] 5.77% | [11] 0.91% | [12] 0% | [13] 3.26% | [14] -2.26% | [15] 6% | [16] 56.5%
